Assay results published in PMC6337391 (Molecules, 2019).

Legend:
[1] = Reducing activity with the stable radical DPPH
Description: The chalcones were studied for the antioxidant activity (reducing activity RA%) by the use of the stable free radical 2,2-diphenyl-1-picrylhydrazyl radical (DPPH) at concentrations 0.05 mM after 20 and 60 min (Table 2). In this procedure, the dominant chemical reaction involved is the reduction of the DPPH radical by single electron transfer from the antioxidant. […] For the sake of comparison, we measured the RA% values for the intermediate double ethers d which were included in the Table 2.
To a solution of DPPH (final concentration 0.05 mM) in absolute ethanol an equal volume of the compounds solution in DMSO (stock solution 10 mM) dissolved in ethanol was added. Absolute ethanol was used as a control. The concentrations of the solutions of the compounds were 0.05 and 0.1 mM. The absorbance was recorded at 517 nm at room temperature after 20 and 60 min [29] (Table 2).

[2] = ABTS•+ decolorization assay
Description: The decolorization assay is used to evaluate the antioxidant activity. The ABTS^•+ cationic radical is derived from the direct oxidation of ABTS by potassium persulfate. No involvement of an intermediary radical is observed. The addition of electron-donating antioxidants reduce ABTS^•+.
Stock solutions of the tested compounds in DMSO (10 mM) were diluted. […] aliquots of each sample were added into the ABTS·^+ solution and the absorbance was recorded at room temperature. Trolox was used as a standard.

[3] = Inhibition of linoleic acid lipid peroxidation (AAPH)
From the text: The water soluble 2,2′-azobis(2-amidinopropane) hydrochloride (AAPH) generates in vitro free radicals through spontaneous thermal decomposition. […] Overall, chalcones a, b, and c present anti-lipid peroxidation activity. […] The inhibiting activities for the rest b chalcones ranged from 15–44%. The intermediate ethers are moderate inhibitors. […] This might be correlated with the presence of the double C=C–COCH3 group. […] Both have a long ether chain in their structure.
In an aqueous solution spectrophotometrically at 234 nm the production of conjugated diene hydro peroxide by oxidation of sodium linoleate was monitored and recorded according to our previous published experimental conditions, using 10 µL of the 16 mM sodium linoleate solution added to the UV cuvette containing 930 μL of 0.05 M phosphate buffer, pH 7.4 pre-thermostated at 37 °C, under air by the addition of 50 μL of 40 mM AAPH solution, which was used as a free radical initiator. Ten microliters (10 μL) of the appropriate solutions of the tested compounds were added in the mixture, whereas same level of DMSO was used as a blank for the measurement of lipid oxidation. The rate of oxidation at 37 °C was monitored by recording the increase in absorption at 234 nm caused by conjugated diene hydro peroxides.

[4] = biological target: T1, soybean lipoxygenase (Glycine max, UniProt P08170); assay: biochemical; type: biochemical; details: soybean LOX, 100 μM
T1 sequence (P08170 1-839): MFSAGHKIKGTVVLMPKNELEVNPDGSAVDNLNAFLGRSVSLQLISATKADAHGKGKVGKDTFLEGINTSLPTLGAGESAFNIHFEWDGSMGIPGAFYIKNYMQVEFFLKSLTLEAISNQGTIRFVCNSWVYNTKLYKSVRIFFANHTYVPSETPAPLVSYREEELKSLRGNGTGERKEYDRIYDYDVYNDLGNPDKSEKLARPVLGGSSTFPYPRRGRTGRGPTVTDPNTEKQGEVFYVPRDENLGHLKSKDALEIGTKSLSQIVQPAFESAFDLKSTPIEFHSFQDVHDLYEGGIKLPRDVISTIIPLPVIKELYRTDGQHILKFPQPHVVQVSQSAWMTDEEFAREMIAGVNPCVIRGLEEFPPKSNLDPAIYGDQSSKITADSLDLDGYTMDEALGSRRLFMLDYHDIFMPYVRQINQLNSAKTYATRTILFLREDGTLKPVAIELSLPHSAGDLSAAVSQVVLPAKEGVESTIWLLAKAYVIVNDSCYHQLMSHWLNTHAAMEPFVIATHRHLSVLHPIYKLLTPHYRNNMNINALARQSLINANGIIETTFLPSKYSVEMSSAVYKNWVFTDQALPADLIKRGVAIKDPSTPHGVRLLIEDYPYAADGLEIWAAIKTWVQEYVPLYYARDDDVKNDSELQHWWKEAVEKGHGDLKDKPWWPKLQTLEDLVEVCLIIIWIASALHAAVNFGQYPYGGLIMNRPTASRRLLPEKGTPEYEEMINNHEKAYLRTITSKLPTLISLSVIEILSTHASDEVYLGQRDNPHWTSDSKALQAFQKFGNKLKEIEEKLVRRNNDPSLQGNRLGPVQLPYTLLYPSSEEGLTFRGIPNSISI
From the text: In our experiments we used soybean lipoxygenase. Designing agents to modulate activities of the variety of so closely homologous enzymes, such as different LOXs, require an intimate knowledge of their 3D structures, as well as information about metabolism of the potential xenobiotics. […] Due to lack of sufficiently-purified human enzymes most of the research has been done on soybean LOX [52, 53]. Although this enzyme is not identical to the mammalian one, it seems that there is a sufficient qualitative correlation between values for enzyme inhibition with the two enzymes.
In vitro study was evaluated as reported previously. The tested compounds as stock solutions were dissolved in DMSO. Ten microliters (10 μL) were incubated at room temperature with sodium linoleate ([…]) and 0.2 mL of enzyme solution (1/9 × 10^−4 w/v in saline) in buffer pH 9 (tris) at room temperature (final volume 1 mL). […] Several concentrations were used for the determination of IC50 values.

[5] = Lipophilicity as RM values by RP-TLC; type: physicochemical; set-up: key: RM = log[(1/Rf) − 1]; details: methanol/water 70/30, SD < 10%
From the text: It is well-documented and discussed in the literature that lipophilicity is a very significant physicochemical property which may critically affect distribution, bioavailability, metabolic activity and elimination, all the useful characteristics for the kinetics of biologically active compounds. Thus, we attempted to determine experimentally the lipophilicity of the synthesized compounds from the RPTLC method as RM values. The method is considered to be a reliable, fast and convenient method for expressing lipophilicity. Moreover, many calculated methods were used in order to predict the logP value.
Reversed phase TLC (RP-TLC) was performed on silica gel plates impregnated with 5% (v/v) liquid paraffin in light petroleum ether. The mobile phase was a methanol/water mixture (70/30, v/v). The plates were developed in closed chromatography tanks saturated with the mobile phase at 24 °C. Spots were detected under UV light. Five individual measurements of Rf values were recorded and used for the determination of RM using the equation RM = log [(1/Rf) − 1]. (Table 3).

[6] = test system: L929 mouse fibroblasts cells; assay: Cytotoxicity, propidium iodide fluorescence method; type: cell-based; details: 24-h incubation
Description: The cytotoxicity of the synthesized derivatives against L929 mouse fibroblasts cells was determined using the propidium iodide (PI) fluorescence method in the presence of different concentrations (1–100 μM) of these compounds. The results are presented in Table 4 in the form of the % cell survival values as PI% for the examined compounds. […] Chalcones c7, c8, c11, and c12 follow.
L929 mouse fibroblasts cells were cultured in EMEM supplemented with 10% horse serum, 2 mM L-glutamine, 1 mM sodium pyruvate, 0.1 mM nonessential amino acids, 1.5 g/L sodium bicarbonate, and 100 μg/mL penicillin–streptomycin at 37 °C in a humidified atmosphere with 5% CO2. L929 cells were plated into 24-well plates at a density […] and allowed to attach and grow for 24 h. The supernatant in each well then replaced with medium containing various concentrations (1, 10, 20, 50 and 100 μM) of compounds a5–12, c5–12, di, and dii–dvi, which presented the more interesting results in the in vitro experiments. After 24-h incubation, the supernatant was removed and the cells were washed with PBS. The cells were detached with 0.25% trypsin, transferred to FACS tubes, and then centrifuged (1600 rpm for 5 min) and the pellet washed with PBS. After washing, the cells in the pellet were incubated with 5 μL propidium iodide (PI) solution (1 mg/mL) for 1 min. The PI fluorescence (cell death) was determined with flow cytometry, FACS Calibur, Coulter Epics XL-MCL (Beckman, Inc., Mount Holly, NJ, USA). The analysis of flow cytometry data was performed with the WinMDI analysis program (Table 4).

| Structure (SMILES) | RA% 100 μM 20 min [1] | RA% 100 μM 60 min [1] | ABTS•+ Inhb. % @ 100 μM [2] | AAPH% @ 100 μM (anti-lipid peroxidation) [3] [%] | % LOX Inhb. @ 100 μM [4] [%] | RM [5] | 1 μM Average (% pi) ± σ [6] [%] | 10 μM Average (% pi) ± σ [6] [%] | 20 μM Average (% pi) ± σ [6] [%] | 50 μM Average (% pi) ± σ [6] [%] | 100 μM Average (% pi) ± σ [6] [%] |
| --- | --- | --- | --- | --- | --- | --- | --- | --- | --- | --- | --- |
| CC(/C=C/C(=O)c1ccc(O)cc1)=C\c1ccccc1 [a8, (2E,4E)-1-(4-hydroxyphenyl)-4-methyl-5-phenylpenta-2,4-dien-1-one] | 6% | 2% | No | 32 | 14 | −0.68 | 1.39 ± 0.1 | 2.95 ± 1.23 | 1.84 ± 2.05 | 8.15 ± 0.34 | 8.15 ± 0.34 |
| O=C(/C=C/C(Br)=C\c1ccccc1)c1ccc(O)cc1 [a9, (2E,4E)-4-bromo-1-(4-hydroxyphenyl)-5-phenylpenta-2,4-dien-1-one] | 10% | 1% | No | 33 | 16 | −0.82 | 0.55 ± 0.09 | 0.59 ± 0.83 | 2.7 ± 0.68 | 7.59 ± 0.13 | 7.59 ± 0.13 |
| O=C(/C=C/c1ccco1)c1ccc(O)cc1 [a10, (E)-3-(furan-2-yl)-1-(4-hydroxyphenyl) prop-2-en-1-one] | 23% | 10% | 2% | 24 | 23 | −0.06 | 3.03 ± 0.88 | 2.25 ± 0.38 | 2.39 ± 1.08 | 17.15 ± 0.32 | 17.15 ± 0.32 |
| O=C(/C=C/C=C/c1ccc([N+](=O)[O-])cc1)c1ccc(O)cc1 [a11, (2E,4E)-1-(4-hydroxyphenyl)-5-(4-nitrophenyl) penta-2,4-dien-1-one] | 7% | 3% | 14% | 55 | 36 | −1.09 | – | 6.26 ± 3 | 18.81 ± 2.57 | 67.84 ± 6.45 | 67.84 ± 6.45 |
| Cc1ccc(/C=C/C(=O)c2ccc(O)cc2)o1 [a12, (E)-1-(4-hydroxyphenyl)-3-(5-methylfuran-2-yl) prop-2-en-1-one] | 24% | 9% | 6% | 45 | 2 | −0.81 | 0.88 ± 0.31 | 3.25± 2.11 | 8.12 ± 0.32 | 63.54 ± 6.16 | 63.54 ± 6.16 |
| O=C(/C=C/c1cccs1)c1ccc(OCCCOc2ccc(C(=O)/C=C/c3cccs3)cc2)cc1 [c5, (2E,2′E)-1,1′-((propane-1,3-diylbis-(oxy))bis-(4,1-phenylene)) bis-(3-(thiophen-2-yl)prop-2-en-1-one)] | No | no | No | 46 | 32 | 0.43 | 0.32 ± 0.45 | 0.97 ± 0.2 | 3.02 ± 1.36 | 7.26 ± 0.3 | 7.26 ± 0.3 |
| O=C(/C=C/C=C/c1ccccc1)c1ccc(OCCCOc2ccc(C(=O)/C=C/C=C/c3ccccc3)cc2)cc1 [c7, (2E,2′E,4E,4′E)-1,1′-((propane-1,3-diylbis(oxy))bis(4,1-phenylene))bis(5-phenylpenta-2,4-dien-1-one)] | No | no | No | 82 | 41 | −0.77 | 22.5 ± 11.64 | 28.73 ± 11.78 | 25.4 ± 8.42 | 28.84 ± 5.62 | 28.84 ± 5.62 |
